Measurements as given in patent US11034672B1, “Tyrosine kinase inhibitor compositions, methods of making and methods of use” (Black Diamond Therapeutics, Inc., priority 2018, dated 2021).

Tested on: HER2 S310F
Test: Tumor pHER2/pERK AlphaLisa in mice bearing HER2 S310F BaF3 tumors (Examples 15-18)
Format: in vivo
Conditions: two day acute oral dosing, 15 mg/kg; at peak plasma levels
Protocol: (§1) Following the second dose, tumors were collected at 2 hours, 5 hours, 12 hours and 24 hours, and analyzed for both pHER2 activity and pERK activity via AlphaLisa. Plasma was also collected at these time points and analayzed for the presence of Compound No. 21 to determine pharmacokinetic profile. The tumor tissue was cut and homogenized using the Precellys Soft Tissue Homogenizing kit (KT03961-1-00.3.2) containing T-PER tissue protein extraction reagent (Thermo Scientific #78510), supplemented with Protease Inhibitor (Sigma P8340), and Phosphatase Inhibitors II and III (Sigma P5726 and P0044). Tissue samples were homogenized in the Precellys machine by spinning two times for one minute each. Sample tubes were centrifuged for 5 min at 15,000 rpm at 4° C. The supernatant was transferred to a fresh microtube and spun again for 5 minutes at 15,000 rpm at 4° C. Supernatant was then transferred to a fresh microtube and placed on ice. The protein concentration of the supernatant was measured using the BCA reagent Kit (Thermo Scientific #23225). Tumor tissue-derived lysates were analyzed for either HER2 activity or EGFR activity by detection of pHER2 (Tyr1221/1222) or pERK (Thr202/Tyr204) phosphosites, respectively, via AlphaLisa. Briefly, tumor Lysates were diluted to 0.5 ug/ul in 1× diluted SureFire Ultra Kit Lysis Buffer (5× supplied stock) supplemented with Protease Inhibitor (Sigma P8340) and Phosphatase Inhibitor II and III (Sigma P5726 and P0044). 10 ul of total tumor lysate was added per well in triplicate to a 384-well Opti-plate (Perkin Elmer #6007290). Activation Buffer was diluted 25-fold in combined Reaction Buffer 1 and Reaction Buffer 2, and acceptor beads were diluted 50-fold in the combined Reaction Buffers. 5 ul/well of the Acceptor bead:Reaction buffer mixture was added to each well.
as §1, with “No. 5” for “No. 21”, “Buffer (X” for “Buffer (5×”
To determine the ability of Compound No. 118 to inhibit tumor growth and induce tumor regression in vivo, a mouse tumor model containing the HER2 S310F mutation was used. Athymic nude mice from Charles River Labs bearing HER2 S310F BaF3 tumors were treated with two day acute oral dosing of Compound No. 118 at 15 mg/kg. […]

Structure (SMILES) | pERK1/2 (Thr202/Tyr204) in tumors | pHER2 (Tyr1221/1222) in tumors
C=CC(=O)Nc1cc2c(Nc3ccc(OCc4ccccn4)c(Cl)c3)ncnc2cc1OCCCN1CCOCC1 [compound 21] | near complete reduction | near complete reduction
CC#CC(=O)Nc1cc2c(Nc3ccc(OCc4ccccn4)c(Cl)c3)ncnc2cc1OCCN1CCOCC1 [compound 5] | reduction | reduction
